Source: PMC8044163, “Vitamin D and lumisterol derivatives can act on liver X receptors (LXRs)” (Scientific Reports, 2021)
Where two headings read alike, the source gives them in different places.

Assays:
genes downstream of LXR = test: qPCR of genes downstream of LXR in murine dermal fibroblasts; assay type: cell-based, mouse; conditions: 10^–7 M, 24 h
Protocol: All animal studies followed guidelines outlined by the NIH Guide for the Care and Use of Laboratory Animals and protocols were approved by the Institutional Animal Care and Use Committee at the NIEHS or the UAB. The study was carried out in compliance with the ARRIVE guidelines (http://www.nc3rs.org.uk/page.asp?id=1357). Skin samples from newborn C57BL/6 mice were collected at the NIEHS. Dermal fibroblasts were isolated from the skin of newborn mice, 1–2 day old. Briefly, we followed the protocols described previously. The skin was washed in PBS, cut into smaller pieces and incubated in 2.4 U/ml of dispase II (Roche) overnight at 4 °C. The dermis was separated from the epidermis and incubated in 0.1% collagenase (Roche) at 4 °C overnight. Next day, it was cut into smaller pieces and incubated for 1 h in 0.25% Trypsin (CellGrow) at 37 °C. Single cell suspension was prepared by pipetting and draining through a cell strainer. After centrifugation, cell pellets were suspended in DMEM medium containing 10% charcoal-stripped fetal bovine serum (cFBS), mouse fibroblasts growth factor (FGF) and 1% antibiotic, and inoculated into tissue culture dishes (Midwest Scientific, TPP). Cells, in early passages, from different mice were pooled together to provide representative samples for experiments. Fibroblasts were cultured in Petri dishes (10 cm in diameter) in DMEM and 10% cFBS and triplicate semi-confluent cultures were treated as described.
RNA isolated from either fibroblasts, HaCaT cells or brain was submitted for cDNA synthesis (High Capacity cDNA Reverse Transcription Kit with RNase Inhibitor, Applied Biosystems) following the manufacturers’ protocols. RT-PCR was carried out using Cyber green, in triplicates; as previously described. Approximately, 750 ng of cDNA was used for PCR reactions. GAPDH and CIC-B were used as internal controls. Primer sequences are listed in Supplementary Table 27. Data were analyzed using GraphPad Prism statistical software one way ANOVA or t-test, where appropriate; *p < 0.05; **p < 0.01; ***p < 0.001.

LXRα/β = test: Ligand induced translocation of LXRα/β to the nucleus, imaging flow cytometry in HaCaT; assay type: cell-based, human; conditions: 10^–7 M, 12 h
Protocol: HaCaT cells were plated in DMEM plus 5% cFBS either on a sterile glass cover slip placed in a well of a 6-well plates for immunofluorescence (IF) assays or TPP Petri dishes for image-stream flow cytometry, and treated with 10^–7 M D3- or L3-hydroxyderivatives or 0.1% ethanol (vehicle) as a negative control was added to each well, and the cells were incubated for 12 or 24 h at 37 °C with 5% CO2. For IF the cells were fixed in 4% paraformaldehyde for 15 min, incubated in 0.5% Triton X-100 in phosphate-buffered saline (PBS) for 5 min, and washed 3 times in PBS. After blocking with 2% bovine serum albumin (BSA) in PBS for 1 h at room temperature, the cells were treated with an anti-LXRα antibody (Novus Biologicals, LLC, Centennial, CO) at 1:200 in PBS supplemented with 2% BSA overnight in 4 °C. After washing the slides were incubated with a mouse anti-rabbit IgG-FITC (Santa Cruz Biotechnology, Inc, Dallas, TX) at 1:200 dilution for 1.5 h at 37 °C. After washing the slides were mounted using propidium iodide (PI) (Vector Labs, Burlingame, California) as a nuclear counterstain. The slides were examined using a KEYENCE America BZ-X710 Fluorescence Microscope (Itasca, IL). The images were subsequently analyzed using the JACoP plugin for colocalization analysis with ImageJ[74]. Five separate high-power field (40×) images were converted to grayscale and analyzed for each condition. Manders’ coefficient (M1), calculated using a preset threshold, was used to quantify the degree of colocalization between PI and LXRα with 0 representing no colocalization, and 1 representing perfect colocalization.
For Image Stream II (Amnis, Seattle, WA, USA) cytometer analyses, HaCaT cells were detached and processed as previously described. The cells were fixed with paraformaldehyde and permeabilized in methanol containing buffer[78],[79] and Hoechst stain (r37165, ThermoFisher) and rabbit antibodies to LXRα/β (sc 377260, AF 647, SantaCruz) or VDR (sc-13133, AF 488, SantaCruz) as described previously. Data were analyzed using IDEAS software (Amnis, Seattle, WA, USA).

LBD of LXRα = molecular target: T1, LBD of LXRα (Homo sapiens, UniProt Q13133); test: LanthaScreen TR-FRET LXRα coactivator assay (LXR binding assay); assay type: biochemical; conditions: average values; for EC50: agonist, read-out: LXRα EC50; for IC50: inverse agonist
T1 construct: after addition of LXRα/β-LBD to the derivatives; purchased Thermo Fisher Scientific
T1 sequence (Q13133 209-447 limits assumed): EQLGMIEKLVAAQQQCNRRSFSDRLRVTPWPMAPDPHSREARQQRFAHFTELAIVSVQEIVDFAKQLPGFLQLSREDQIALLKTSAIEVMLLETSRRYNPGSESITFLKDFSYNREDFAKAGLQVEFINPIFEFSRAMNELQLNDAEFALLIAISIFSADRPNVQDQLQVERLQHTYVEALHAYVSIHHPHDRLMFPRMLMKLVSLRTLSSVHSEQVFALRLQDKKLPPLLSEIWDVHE
Protocol: Binding assays of graded concentrations of vitamin D3 or lumisterol hydroxyderivatives to LXRα/β were performed using the LanthaScreen TR-FRET LXRα/β Coactivator kit (Thermo Fisher Scientific, Inc., Waltham, MA) following the manufacture’s protocol. Briefly, after addition of LXRα/β-LBD to the derivatives, a mixture of peptide (Fluorescein-TRAP220/DRIP-2 for LXRα or Fluorescein-D22 for LXRβ) and antibody (Tb-anti-GST) was added to the reaction followed by incubation in room temperature for 2 h. TR-FRET ratio was calculated by dividing the emission at 520 nm by the emission at 495 nm using Synergy neo2 (BioTek, Winooski, VT).

ABCA1 gene = conditions: HaCaT cells, 10^–7 M, microarray GSE117351 ref 44, cited from earlier work
[1] = test system: LXR-response element (LXRE)-driven reporter in CHO cells; test: LXRE-driven luciferase reporter assay in CHO cells; assay type: cell-based; conditions: 10^–7 M, CHO and HaCaT cells (Fig. 4C)
Protocol: The effects of vitamin D3 and L3 hydroxyderivatives were tested on the LXRE transcriptional activity using pGreenFire1-LXRE-in-ApoE Lentivirus (System Biosciences, Palo Alto, CA). This plasmid was transduced in CHO and HaCaT cells following the manufacture’s protocol and the cells used as a stable LXRE expressed tool. Briefly, the virus was transduced into the cells using TransDux MAX Lentivirus Transduction Enhancer (System Biosciences, Palo Alto, CA) and screened to select the transduced cells using puromycin. The transduced cells were treated with the compounds for 24 h in media containing 5% cFBS (charcoal-treated fetal bovine serum) and the luminescence was read by ONE-Glo Luciferase Assay System (Promega, Madison, WI) using Cytation 5 (BioTek, Winooski, VT).

Structure (SMILES)	Cyp7a1 expression (genes downstream of LXR)	Fas (fatty acid synthase) expression (genes downstream of LXR)	translocation of LXRα/β from the cytoplasm to the nucleus (LXRα/β)	EC50 (LBD of LXRα)	Abcg8 expression (genes downstream of LXR)	ApoE (apolipoprotein E) expression (genes downstream of LXR)	ABCA1 expression, stimulation (ABCA1 gene; 6 h)	ABCA1 expression, stimulation (ABCA1 gene; 24 h)	LXRE luciferase (transcriptional) activity [1]	IC50 (LBD of LXRα)
C=C1CC[C@H](O)C/C1=C/C=C1\CCC[C@@]2(C)[C@H]1CC[C@@H]2[C@@](C)(O)CCCC(C)C [20(OH)D3]	stimulated	stimulated	increased translocation	0.015 µM						
C=C1CCC(O)CC1=CC=C1CCCC2(C)C1CCC2C(C)(O)CC(O)CC(C)C (stereo not drawn) [20,23(OH)2D3]				1.1 µM	induced	enhanced	2.8 times	2.3 fold		
C=C1/C(=C\C=C2/CCC[C@]3(C)[C@@H]([C@H](C)CCCC(C)(C)O)CC[C@@H]23)C[C@@H](O)C[C@@H]1O [1,25(OH)2D3, reference compound]	stimulated	stimulated	increased translocation				2.4 times	2.4 fold	strongest stimulatory effects	1.1 µM
CC(C)CCC[C@](C)(O)[C@H]1CC[C@H]2[C@@H]3CC=C4C[C@@H](O)CC[C@]4(C)[C@H]3CC[C@@]21C [20(OH)C, 20-hydroxycholesterol, reference compound]	inhibited				inhibited	inhibited				
C=C1C(=CC=C2CCCC3(C)C2CCC3C(C)(O)CC(O)CC(C)C)CC(O)CC1O (stereo not drawn) [1,20,23(OH)3D3]	inhibited	stimulated	increased translocation						strongest stimulatory effects	2.1 µM
